Some results are limits rather than exact numbers.

What all share (type): cell-based
The test system of one experiment is ML-2 cells. In words: Growth assay (CellTiter-Glo), ML-2. The note with it: Homo sapiens, ML-2, 72 h; acute myelomonocytic leukemia; BRAF WT, KRAS-A146T; 3 days. From the text: (§1) In order to determine the effects of Formula I on proliferation, a growth assay was established using melanoma cells (A375 and COLO829) and colorectal carcinoma cells (COLO205, HT-29) which each express the BRAFV600E mutation. To show selectivity over wild-type BRAF, several BRAF wild-type cell lines (K562, NOMO-1, MV-4-11 and ML-2) were also examined in the growth assay. The growth assay implemented the Promega CellTiter-Glo Luminescent Cell viability assay, which gives a luminescent readout that is proportional to the amount of ATP present in a cell sample. As ATP levels directly correlate with the number of viable cells, the luminescent signal can be used to determine the potency of Formula I to block the proliferation of the cell lines of interest.
(§2) 1. 3,000 cells were plated in each well for cell lines A375, COLO205, COLO829, HT-29, and SK-MEL-3. 25,000 cells were plated in each well for cell lines K562, ML-2, MV-4-11, and
(§3) NOMO-1 of a 96-well tissue-culture-treated plate (Corning #3610) in a 50 μL volume. Cells were incubated overnight at 37° C.
(§4) 2. Each test compound was plated as an 8-point titration, using 1:3 dilutions in DMSO. The maximum concentration was about 5 mM. Dilute DMSO and test compound of Formula I 1:250 in growth media.
3. […]
(§5) 4. […] Luminescence was measured on a Tecan Safire plate reader. […]
On the technique in general: Cellular ATP, detected with luciferase, serves as a proxy for viable cell number.

The subject of the next experiment is HT-29 cells. In words: Growth assay (CellTiter-Glo), HT-29. The note with it: Homo sapiens, HT-29, 72 h; colorectal adenocarcinoma; BRAF V600E/WT, RAS WT; 3 days.
Description: as §1, §2, §3, §4
3. […]
as §5

The subject of experiment [1] is BRAF-V600E in SK-MEL-239 parental cells. Kind of experiment: ERK/MEK phosphorylation and growth assays, SK-MEL-239 parental.

In general, IC50 refers to the concentration needed to halve the response being measured. A lower IC50 goes with higher potency. Consider `O=C(c1c(F)ccc(NS(=O)(=O)N2CC[C@@H](F)C2)c1F)c1c[nH]c2ncc(-c3cnc(C4CC4)nc3)cc12` [Formula I, (3R)—N-[3-[5-(2-cyclopropylpyrimidin-5-yl)-1H-pyrrolo[2,3-b]pyridine-3-carbonyl]-2,4-difluorophenyl]-3-fluoropyrrolidine-1-sulfonamide], for which the results for the IC50 with ML-2 cells and in the experiment on HT-29 cells were > 10 µM and 0.84 µM, respectively. Besides, the “Inhibition of BRAF-V600E in SK-MEL-239 parental (in words)” value in experiment [1] is on record as “potent inhibitor”.

The values are drawn from US9814714B2, “Kinase modulation, and indications therefor” (Plexxikon Inc., priority 2015, dated 2017).
